In brackets after ≈: the same amount, converted by molar mass. Entries after “also recorded” stand apart in the source; their conditions may differ. Some results are limits rather than exact numbers.

The target in test [1] is 70S ribosome. Description: Fluorescence anisotropy binding to 70S ribosomes. The settings on record: competition with CRP, E. coli ribosomes; read-out: Dissociation constant (KD) with 70S ribosome. Here is the method: (§1) After establishing the lack of stereospecificity in the binding of aminoglycosides to the A-site RNA constructs (FIG. 9A-C) where the binding affinity, KD, is about 0.1 μM to about 100 μM, the stereospecificity of aminoglycoside binding to intact ribosomes was determined. Both yeast and E. coli ribosomes were prepared and aminoglycoside binding was measured using fluorescence anisotropy methods. For example, fluorescence anisotropy methods recited in Wang, Y., and Rando, R. R. Chem. Biol. (1995) 2, 281-290; and Wang, Y., Hamasaki, K., and Rando, R. R. Biochemistry (1997) 36,768-779. CRP was used as the binding probe. […] Binding data reported herein for aminoglycoside compounds with eukaryotic yeast ribosomes are similar to binding data for said aminoglycoside compounds with ribosoimes in bacteria and with eukaryotic A-site rRNA constructs.
(§2) 5-Carboxytetramethylrhodamine-labeled paromomycin (CRP) and tobramycin (CRT) concentrations were determined spectroscopically at 550 nm using a molar extinction coefficient of 6.00×10 4 M −1 cm −1. Fluorescence anisotropy measurements were performed on a Perkin-Elmer LS-50B luminescence spectrometer equipped with a thermostat accurate to ±0.1° C. as indicated previously (Wang, Y., Hamasaki, K., & Rando, R. R. (1997) Biochemistry 36, 768-779). The tracer solution was excited at 550 nm and monitored at 580 nm. The integration time was 5 s. For every point, 6 measurements were taken, and their average values were used for calculation. Measurements were carried out in a buffer solution containing 150 mM NaCl, 5 mM KCl, 1 mM CaCl2, 1 mM MgCl2, and 20 mM HEPES (pH 7.5). Prior to measurements, RNA constructs were renatured by incubating in binding buffer {150 mM NaCl, 5 mM KCl, 1 mM CaCl2, 1 mM MgCl2, and 20 mM HEPES (pH 7.5)} for 3 minutes at 90° C. followed by slow cooling to 25° C.
(§3) Equation 1 was used for the determination of the dissociation constant (Kd) for the interactions between RNA or ribosome and CRP. A=A0+DA{(RNA)0+(CRP)0+Kd−({(RNA)0+(CRP)0+Kd}^2−4(RNA)0(CRP)0)½}/2 where A and A0 are the fluorescence anisotropy of CRP in the presence and absence of RNA, respectively, and DA is the difference between the fluorescence anisotropy of CRP in the presence of an extrapolated infinite concentration of RNA minus the fluorescence anisotropy in the absence of RNA. (RNA)0 and (CRP)0 are the initial concentrations of RNA and CRP, respectively.
(§4) Equation 2 is used for the calculation of the KD values in the competition binding assay. (aminoglycoside)0={KD(A−−A)/Kd(A−A0)+1}{(RNA)0−Kd(A−A0)/(A−−A)−(CRP)0(A−A0)/(A−−A)} where KD is the dissociation constant between the RNA and the aminoglycosides; (aminoglycoside)0 is the initial concentration of the aminoglycosides; AL is anisotropy of completely bound tracer. Both Kd and KD were determined by non-linear curve fitting using the equations described above, and are presented as mean values of three independent measurements.
The purification of E. coli (E600) 70S ribosomes was carried out according to the published procedure (Lazaro, E., van den Broek, L. A. G. M., Felix, A. S., Ottenheijm, H. C. J., Ballesta, J. P. G. (1991) Biochemistry 30, 9642-9648). E. coli MRE600 were grown for 12 h in 6L of LB medium (10 g trypton, 5 g yeast extract, 5 g NaCl per 1 L, pH 7.0) at 37° C. Crude ribosomes were precipitated from clarified supernatant by 4 h centrifugation at 25,000 rpm in Beckman SW 28 rotor at 4° C. The ribosome pellets were collected in 5 mL of buffer BR1, containing 10 mM HEPES, pH 7.5, 500 mM ammonium acetate, 100 mM magnesium chloride and 2.5 mM DTT. The ribosome suspension was centrifuged for 20 min at 15000 rpm to be clarified. The clarified sample was loaded over two layers of 20% and 40% sucrose in buffer BR1 and centrifuged for 18 hr at 19000 rpm in Beckman SW28 rotor at 4° C. […]

The target of test [2] is 80S ribosome. Description: Fluorescence anisotropy binding to 80S ribosomes. Also on record: species or system yeast (S. cerevisiae). The conditions noted are these: competition with CRP, yeast ribosomes; read-out: Dissociation constant (KD) with 80S ribosome. Here is the method: as §1, §2, §3, §4
The purification of yeast 80S ribosomes from S. cerevisiae strain YSB 758 was carried out according to the published procedure (Verschoor, A., Warner, J. R., Srivastava, S., Grassucci, R. A., & Frank, J. (1997) Nucl. Acid Res. 26, 655-661). S. cerevisiea YSB 758 were grown for 12 hrs at 30° C. in 2L of YPD medium, containing: 20 g bacto peptone, 20 g glucose, 10 g yeast extract and 0.15 g tryptophan per 1 L, pH 7.0. The cells were lysed by 5-10 cycles of 1 min vigorous shaking with glass beads with a vortex, followed by cooling on ice. Clarified cell extract (about 9 mL total, used in 6 portions in 1.5 mL aliqouts) was carefully loaded on top of 2 mL of a cushion, composed of 10% sucrose and 5% ammonium sulfate dissolved in buffer YR1 (20 mM HEPES pH=7.4, 16 mM magnesium chloride, 100 mM potassium chloride, 5 mM DTT, and 0.5 mM EDTA). The ribosomes were collected by centrifugation in Beckman TL100.3 rotor at 75000 rpm for 3 h. The supernatants were carefully discarded and ribosomes were collected in buffer YR1. […]

Test [3] relates to E. coli S30 extract, containing 70S ribosomes. Description: In vitro protein translation (CAT mRNA, 35S methionine incorporation). Type of test: biochemical. The settings on record: quantitation of gel bands, read-out: IC50, concentration producing 50% inhibition of translation.
Procedure: Protein translation was performed from chloramphenicol acetyl transferase (CAT) mRNA. […] A commercial E. coli ribosomal suspension was supplemented with an E. coli extract containing the required elements for translation. These include translation factors, tRNAs, and aminoacyl tRNA synthases. Plasmid, T7 RNA polymerase and amino acids were added to the reaction mixture, and both transcription and translation steps were performed in the same vial. The effects of the aminoglycosides on the translation process were evaluated by measuring the incorporation of ^35S methionine in the translated chloramphenicol acetyl transferase protein.
In vitro translation was performed by using PROTEINscript™-PRO (Ambion) kit. […] Reaction mixtures contained appropriate concentrations of antibiotic (neomycin B, D- and L-neamine). The protein was translated from CAT mRNA, transcribed from control DNA template containing CAT gene under control of the T7 promotor. The product, ˜25 kDa chloramphenicol acetyl transferase, was labeled during translation with 1 μCi ^35S methionine (New England Nuclear) per reaction (no cold methionine was added).
Following the translation, the samples were analyzed by electrophoresis on 4-20% SDS mini-gels (Invitrogen) for 1.5 h at 120V. Gels were fixed with 40% methanol/10% acetic acid and exposed to Molecular Dynamics phosphoimager plates, which were read on a Personal FX phosphoimager (Bio-Rad) and quantitated using QuantityOne™ software.
Test [4] concerns E. coli (ATCC 25922). Description: MIC, wild type E. coli. Type of test: cell-based. The conditions noted are these: growth inhibition greater than 90%. The procedure:
(§5) Minimal inhibitory concentrations (MIC) were measured according to the published method (Greenberg, W. A., Priestley, E. S., Sears, P. S., Alper, P. B., Rosenbohm, C., Hendrix, M., Hung, S.-C., & Wong, C.-H. (1999) J. Am. Chem. Soc. 121, 6527-6541). E. coli (ATCC 25922) (both wild type and pMM-transformed) and P. aeruginosa (ATCC 27853) were grown in medium 2 to an optical density OD 600 of 0.6-0.8. The inoculi were diluted to OD 600 ˜0.1 in medium 2 and 1 mL of the culture was placed in 13 mL test tubes. The desired concentrations of antibiotic were added from stock solutions. […] The absorbance at 600 nm of each sample was read and MIC was taken as the lowest antibiotic concentration inhibiting bacterial growth by greater than 90%.

In test [5] the test system is E. coli (ATCC 25922) transformed with pMM plasmid bearing APH(3')IIa. Description: MIC, kanamycin/neomycin resistant E. coli. Type of test: cell-based. The conditions noted are these: growth inhibition greater than 90%. The procedure:
(§6) E. coli (ATCC 25922) and P. aeruginosa (ATCC 27853) (BD Bioscience) were inoculated in 3 mL of the medium 2 (U.S. Pharmacopia), containing 6 g peptone, 3 g yeast extract and 1.5 g beef extract per 1 L, pH 6.6, and were grown in a shaker for 6 h at 37° C. until an OD 560=0.6-0.8 was reached.
as §5

Test [6] deals with P. aeruginosa (ATCC 27853). Description: MIC, P. aeruginosa. The test is classed as cell-based. The conditions noted are these: growth inhibition greater than 90%. The procedure: as §5
Test [7] has as its system E. coli (ATCC 25922). Description: Bactericidal activity (bactericide index). The test is classed as cell-based. The conditions noted are these: 3 h incubation, FIG. 8. The procedure:
The bactericidal activity of each antibiotic was investigated at concentrations of 0.5-4×MIC in medium E. coli (ATCC 25922) inoculum was added to 0.5 mL medium 2 to OD 600 ˜0.1 together with different antibiotic concentrations. The samples were incubated at 37° C. for 3 hrs, and the bacteria were collected by centrifugation. The bacterial pellets were washed with 0.5 mL of medium 2 and were plated on 1.5% medium 2 agar in 100 mm Petri dishes. The plates were incubated for 1-2 days at 37° C. and mean log 10 change in viable count was calculated and plotted vs drug concentration.

Test [8] concerns E. coli (ATCC 25922) transformed with the plasmid pMM, bearing the APH(3')IIa gene. Description: Antibiotic activity disk assay, kanamycin/neomycin resistant E. coli. The test is classed as cell-based. The conditions noted are these: FIG. 7B. Here is the method:
as §6
For the antibiotic disk assay, […] of each bacterial inoculum was mixed with 10 mL of melted agar (1.5% medium 2 agar, BD Bioscience) at 50-55° C. and poured onto 100 mm Petri dishes. Sterile Whatmann 3 MM 5 mm paper disks were soaked with antibiotic solutions and allowed to dry. The disks were positioned evenly on the surface of bacterial-inoculated solid agar and the plates were incubated at 37° C. for 1-2 days. MIC and bactericide index measurements.

The term Kd denotes the constant that tells how readily two partners part at equilibrium. In the case of `NCC1OC(OC2C(N)CC(N)C(O)C2O)C(N)C(O)C1O` [D-Neamine], the Kd was 5.45 ± 0.68 µM in test [1] and 1.14 ± 0.25 µM in test [2]. For the same compound, the IC50 in test [3] was 38 µM. The “Minimal inhibitory concentration (MIC), E. coli” value in test [4] turned out to be 150 µM (≈ 48.4 µg/mL). Further, the “Minimal inhibitory concentration (MIC), E. coli kan/neo resistant” value in test [5] was over 6400 µM. Also, the “Minimal inhibitory concentration (MIC), P. aeruginosa” value in test [6] was determined as 500 µM (≈ 161 µg/mL). Further, the “Concentration at which bactericidal effect begins” value in test [7] worked out at 75 µM. In addition, the “Antibiotic activity in disk assay, kanamycin/neomycin resistant E. coli” value in test [8] was “selective resistance towards D-neamine; also recorded: essentially abolished”.

The record behind these values is patent US7244712B2, “Aminoglycoside antibiotics and methods of using same” (priority 2004, dated 2007).
